Measurements from the supplement of paper PMC10307832.

Assays:
Experiment in all cases: relative viability (nuclei count vs DMSO), 5 days (fraction); higher = more cells survive
[1] = compound: C[C@@]1(C(=O)Nc2ccc(F)nc2)CCCN1c1nc(Nc2cc(C3CC3)n[nH]2)c2cccn2n1 + Cc1nc(Nc2ncc(C(=O)Nc3c(C)cccc3Cl)s2)cc(N2CCN(CCO)CC2)n1 [Dasatinib] (partner 0.075 µM)
Method in brief: (§1)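 Lung cancer cell lines in 1536-well plates got either a single drug or a fixed anchor-drug dose together with five library-drug doses (not always all listed) in √10 steps, by pin tool, on the day after seeding. Nuclei were counted after 5 days, and relative viability is the treated-to-vehicle ratio of nuclei counts. Values are medians of duplicate plates.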

Motesanib + OSI-027 = compound: CC1(C)CNc2cc(NC(=O)c3cccnc3NCc3ccncc3)ccc21 [Motesanib] + COc1cccc2cc(-c3nc([C@H]4CC[C@H](C(=O)O)CC4)n4ncnc(N)c34)[nH]c12 [OSI-027] (partner 0.5 µM)
Method in brief: as §1

Motesanib + Pictilisib = compound: CC1(C)CNc2cc(NC(=O)c3cccnc3NCc3ccncc3)ccc21 [Motesanib] + CS(=O)(=O)N1CCN(Cc2cc3nc(-c4cccc5[nH]ncc45)nc(N4CCOCC4)c3s2)CC1 [Pictilisib] (partner 1 µM)
Method in brief: as §1

[2] = compound: C[C@@]1(C(=O)Nc2ccc(F)nc2)CCCN1c1nc(Nc2cc(C3CC3)n[nH]2)c2cccn2n1 + CS(=O)(=O)CCNCc1ccc(-c2ccc3ncnc(Nc4ccc(OCc5cccc(F)c5)c(Cl)c4)c3c2)o1 [Lapatinib] (partner 2 µM)
Method in brief: as §1

Cell Line	relative viability ([1]; first compound 0.04 µM)	relative viability ([1]; first compound 0.1265 µM)	relative viability ([1]; first compound 0.4 µM)	relative viability ([1]; first compound 1.265 µM)	relative viability (Motesanib + OSI-027; first compound 0.01 µM)	relative viability (Motesanib + OSI-027; first compound 0.03162 µM)	relative viability (Motesanib + OSI-027; first compound 0.1 µM)	relative viability (Motesanib + OSI-027; first compound 0.3162 µM)	relative viability (Motesanib + OSI-027; first compound 1 µM)	relative viability (Motesanib + Pictilisib; first compound 0.01 µM)	relative viability (Motesanib + Pictilisib; first compound 0.03162 µM)	relative viability (Motesanib + Pictilisib; first compound 0.1 µM)	relative viability (Motesanib + Pictilisib; first compound 0.3162 µM)	relative viability (Motesanib + Pictilisib; first compound 1 µM)	relative viability ([2]; first compound 0.04 µM)	relative viability ([2]; first compound 0.1265 µM)	relative viability ([2]; first compound 0.4 µM)	relative viability ([2]; first compound 1.265 µM)
NCI-H2342	0.356	0.26	0.294	0.264	0.555	0.654	0.672	0.505	0.637	–	–	–	–	–	–	–	–	–
HCC-15	0.458	0.233	0.271	0.297	0.693	0.65	0.64	0.817	0.64	0.786	0.729	0.653	0.848	0.747	0.839	0.743	0.746	0.739
A-427	0.632	0.557	0.617	0.453	0.4	0.459	0.485	0.545	0.5	0.43	0.684	0.495	0.681	0.789	1.04	0.934	1.09	1.08
NCI-H2228	0.414	0.278	0.22	0.208	0.572	0.455	0.489	0.689	0.572	0.442	0.356	0.387	0.365	0.535	1.18	0.721	0.908	0.578
NCI-H1734	0.345	0.296	0.29	0.185	0.659	0.602	–	0.58	0.527	0.446	0.496	0.461	0.479	0.48	1	0.814	0.817	0.98
PC-14	0.281	0.0303	0.0906	0.0823	0.868	1.01	0.704	0.844	0.849	0.729	0.695	0.84	0.72	0.858	0.329	0.282	0.264	0.271
NCI-H1915	0.302	0.3	0.288	0.268	0.575	0.72	0.625	0.631	0.632	0.933	0.984	0.657	0.994	1.06	0.964	0.999	1.01	0.994
NCI-H1666	0.709	0.613	0.486	0.412	0.784	0.816	0.894	0.937	0.859	0.466	0.5	0.416	0.463	0.49	0.455	0.391	0.237	0.296
HCC-366	0.374	0.141	0.201	0.061	0.964	0.959	0.863	0.881	1.03	0.145	0.149	0.139	0.139	0.137	1.22	0.946	1.07	0.883
SK-MES-1	0.27	0.244	0.159	0.153	0.611	0.59	0.661	0.648	0.564	0.392	0.405	0.403	0.381	0.339	0.477	0.438	0.364	0.448
SW 1573	0.494	0.275	0.213	0.114	0.561	0.583	0.549	0.736	0.709	0.479	0.437	0.617	0.54	0.563	1.04	0.902	0.729	1
NCI-H661	0.762	0.841	0.669	0.517	0.73	0.741	0.848	0.749	0.576	0.327	0.35	0.348	0.379	0.43	0.492	0.839	0.32	0.389
PC-3 [JPC-3]	1.09	0.94	0.891	0.787	0.8	0.737	0.784	0.759	0.86	0.774	0.858	0.733	0.853	0.706	0.457	0.403	0.382	0.398
NCI-H1623	0.465	0.247	0.438	0.412	0.454	0.475	0.475	0.389	0.409	–	–	–	–	–	–	–	–	–
Calu-6	–	–	–	–	–	–	–	–	–	0.878	0.727	0.944	0.867	0.84	1.14	1.08	0.95	0.693
LC-2-ad	0.363	0.328	0.235	0.196	0.927	0.948	0.872	0.803	0.716	0.449	0.593	0.479	0.568	0.421	0.904	0.759	0.745	0.32
CAL-12T	0.239	0.146	0.101	0.0918	0.628	0.731	0.685	0.555	0.677	–	–	0.358	0.403	0.434	0.8	0.442	0.564	0.555
RERF-LC-KJ	0.577	0.436	0.42	0.385	0.637	0.565	0.582	0.59	0.593	0.507	0.63	0.621	0.613	0.61	0.793	0.715	0.692	0.696

Cell Line	relative viability ([1]; first compound 0.04 µM)	relative viability ([1]; first compound 0.1265 µM)	relative viability ([1]; first compound 0.4 µM)	relative viability ([1]; first compound 1.265 µM)	relative viability (Motesanib + OSI-027; first compound 0.01 µM)	relative viability (Motesanib + OSI-027; first compound 0.03162 µM)	relative viability (Motesanib + OSI-027; first compound 0.1 µM)	relative viability (Motesanib + OSI-027; first compound 0.3162 µM)	relative viability (Motesanib + OSI-027; first compound 1 µM)	relative viability (Motesanib + Pictilisib; first compound 0.01 µM)	relative viability (Motesanib + Pictilisib; first compound 0.03162 µM)	relative viability (Motesanib + Pictilisib; first compound 0.1 µM)	relative viability (Motesanib + Pictilisib; first compound 0.3162 µM)	relative viability (Motesanib + Pictilisib; first compound 1 µM)	relative viability ([2]; first compound 0.04 µM)	relative viability ([2]; first compound 0.1265 µM)	relative viability ([2]; first compound 0.4 µM)	relative viability ([2]; first compound 1.265 µM)
NCI-H1650	0.313	0.266	0.249	0.144	0.747	0.688	0.725	0.562	0.586	0.592	–	0.516	0.495	0.517	0.894	0.679	0.656	0.402
BEN	0.32	0.382	0.329	0.271	0.281	0.277	0.272	0.291	0.31	0.517	0.618	0.624	0.579	0.715	0.712	0.729	0.765	0.698
EMC-BAC-2	0.242	0.212	0.136	0.167	0.398	0.341	0.36	0.412	0.378	0.582	0.564	0.537	0.542	0.6	0.856	0.671	0.572	0.622
LU99A	0.409	0.257	0.219	0.197	0.287	0.261	0.301	0.307	0.322	0.348	0.327	0.309	0.386	0.352	0.808	0.545	0.48	0.342
ABC-1	0.51	0.395	0.366	0.204	0.438	0.521	0.407	0.332	0.604	0.81	0.962	0.715	0.707	0.76	1.14	1.59	0.752	0.633
NCI-H2170	0.572	0.564	0.47	0.414	0.686	0.687	0.748	0.718	0.775	0.278	0.347	0.294	0.331	0.344	0.245	0.258	0.283	0.271
NCI-H1299	–	–	–	–	–	–	–	–	–	0.59	0.828	0.825	0.845	0.845	1.01	1.03	0.964	0.967
EBC-1	–	–	–	–	–	–	–	–	–	0.503	0.366	0.302	0.385	0.335	0.208	0.19	0.239	0.205
NCI-H1648	–	–	–	–	0.275	0.283	0.268	0.275	0.295	–	–	–	–	–	–	–	–	–
ChaGo-K-1	0.505	0.486	0.522	0.443	0.637	0.474	0.495	0.597	0.563	–	0.535	0.532	0.638	0.757	–	–	–	–
HCC-44	–	–	–	–	0.552	0.431	0.633	0.633	0.544	0.672	0.611	0.891	0.673	0.474	0.894	0.794	0.647	0.688
A549	–	–	–	–	–	–	–	–	–	0.515	0.478	0.504	0.574	0.57	0.648	0.477	0.348	0.103
NCI-H522	0.856	0.628	0.775	0.789	0.741	0.585	0.417	0.659	0.732	–	–	–	–	–	–	–	–	–
IA-LM	–	–	–	–	–	–	–	–	–	0.38	0.346	0.351	0.318	0.519	0.702	0.935	0.647	0.601
NCI-H1703	–	–	–	–	–	–	–	–	–	0.21	0.219	0.195	0.215	0.214	0.996	0.867	0.898	–
NCI-H441	0.385	0.155	0.223	0.203	0.557	0.619	0.608	0.577	0.547	0.414	0.524	0.518	0.441	0.506	–	–	–	–
LCLC-103H	0.412	0.35	0.237	0.174	0.471	0.467	0.465	0.429	0.466	–	0.613	0.542	0.639	0.709	–	–	–	–
SW 900	0.555	0.32	0.507	0.346	0.65	0.515	0.651	0.61	0.656	–	–	–	–	–	–	–	–	–
